In patent publication US20060165722A1 (priority 2005, published 2006):
Entries after “also recorded” stand apart in the source; their conditions may differ.

Experiments:
tetanus toxin = system: tetanus toxin; set-up: species or system mice; conditions: mouse, in vivo
human monocytes = assay: FACS analysis of human monocytes stimulated with AT1002; type: cell-based; conditions: 18 hours
human macrophages = assay: FACS analysis of human macrophages stimulated with AT1002; type: cell-based
C57BL/6 female mice = conditions: mouse, in vivo
[1] = AT1002 20 micrograms/ml and 1 microgram/ml

FCIGRL [AT1002]
protection against tetanus toxin challenge (paralysis and death) (tetanus toxin): all protected
expression of CD80 (B7-1) on monocytes (human monocytes): not upregulated
expression of CD86 (B7.2) on monocytes (human monocytes): not upregulated
membrane expression of HLA-DR on monocytes (human monocytes; [1]): upregulates
membrane expression of HLA-I on monocytes (human monocytes; [1]): upregulates
expression of CD40 on macrophages (human macrophages; 18 hours): upregulates
membrane expression of CD86 on macrophages (human macrophages; 18 hours): strongly upregulates
membrane expression of HLA-DR on macrophages (human macrophages; 18 hours): strongly upregulates
membrane expression of HLA-I on macrophages (human macrophages; 18 hours): strongly upregulates
expression of CD80 on macrophages (human macrophages; 18 hours, not reported in the figure): also upregulated
upregulation of HLA-I and HLA-DR molecules compared with LPS (human macrophages; macrophages, LPS positive control): more efficient than LPS
geometric mean titers of anti-TT IgA in vaginal secretions (C57BL/6 female mice): induces IgA against the co-administered antigen in a mucosal district far from the site of immunization
geometric mean titers of anti-TT serum IgA (C57BL/6 female mice): induces serum IgA against the co-administered antigen
geometric mean titers of anti-TT serum IgG (C57BL/6 female mice): higher as compared to those of animals immunized with TT alone; also recorded: higher than those observed after four doses
relatively most effective AT1002 dose (anti-TT serum IgG) (C57BL/6 female mice): 30 nmol

Tetanus toxoid [TT alone]
range of anti-TT IgG titer (tetanus toxin): 256-4,096
